Source: ChEMBL document CHEMBL5376011, “Discovery of Anti-Hypercholesterolemia Agents Targeting LXRα from Marine Microorganism-Derived Natural Products” (J Nat Prod, 2024)
Active and inactive are the calls of the source. No cut-off for these calls is given here.

Experiments:
[1] = system: Mus musculus; test: Antihypercholesterolemic activity against high cholesterol diet fed C57BL/6J mouse assessed as reduction in SCD1 protein level at 300 microg/kg, ip administered every 2 days for 15 days by Western blot analysis; assay type: functional, organism-based; settings: dose 300.0 µg/kg, time 15.0 day
[2] = system: Mus musculus; test: Antihypercholesterolemic activity against high cholesterol diet fed LXRalpha knockout C57BL/6J mouse assessed as reduction in serum triglycerides level at 300 microg/kg, ip administered every 2 days for 15 days; assay type: functional, organism-based; settings: dose 300.0 µg/kg, time 15.0 day
[3] = system: Mus musculus; test: Antihypercholesterolemic activity against high cholesterol diet fed LXRalpha knockout C57BL/6J mouse assessed as reduction in serum total cholesterol level at 300 microg/kg, ip administered every 2 days for 15 days; assay type: functional, organism-based; settings: dose 300.0 µg/kg, time 15.0 day
[4] = system: Mus musculus; test: Antihypercholesterolemic activity against high cholesterol diet fed LXRalpha knockout C57BL/6J mouse assessed as reduction in serum high density lipoprotein cholesterol level at 300 microg/kg, ip administered every 2 days for 15 days; assay type: functional, organism-based; settings: dose 300.0 µg/kg, time 15.0 day
[5] = system: Mus musculus; test: Antihypercholesterolemic activity against high cholesterol diet fed C57BL/6J mouse assessed as reduction in degree of hepatic steatosis at 300 microg/kg, ip administered every 2 days for 15 days by H&E staining based analysis; assay type: functional, organism-based; settings: dose 300.0 µg/kg, time 15.0 day
[6] = system: Mus musculus; test: Antihypercholesterolemic activity against high cholesterol diet fed C57BL/6J mouse assessed as improvement in hepatocyte liposis at 300 microg/kg, ip administered every 2 days for 15 days by H&E staining based analysis; assay type: functional, organism-based; settings: dose 300.0 µg/kg, time 15.0 day
[7] = system: Mus musculus; test: Antihypercholesterolemic activity against high cholesterol diet fed C57BL/6J mouse assessed as improvement in hepatocyte degeneration at 300 microg/kg, ip administered every 2 days for 15 days by H&E staining based analysis; assay type: functional, organism-based; settings: dose 300.0 µg/kg, time 15.0 day
[8] = system: HepG2; test: Effect on LXRbeta mRNA expression in human HepG2 cells at 25 uM incubated for 24 hrs by RT-qPCR analysis; assay type: functional, cell-based
[9] = system: Mus musculus; test: Antihypercholesterolemic activity against high cholesterol diet fed C57BL/6J mouse assessed as reduction in degree of hepatic steatosis at 300 microg/kg, ip administered every 2 days for 15 days by Oil red staining based analysis; assay type: functional, organism-based; settings: dose 300.0 µg/kg, time 15.0 day
[10] = system: Mus musculus; test: Antihypercholesterolemic activity against high cholesterol diet induced C57BL/6J mouse assessed as reduction in total cholesterol level in plasma at 300 microg/kg, ip administered every 2 days for 15 days; assay type: functional, organism-based; settings: dose 300.0 µg/kg, time 15.0 day
[11] = system: Mus musculus; test: Antihypercholesterolemic activity against high cholesterol diet fed LXRalpha knockout C57BL/6J mouse assessed as improvement in hepatic steatosis at 300 microg/kg, ip administered every 2 days for 15 days by Oil red staining based analysis; assay type: functional, organism-based; settings: dose 300.0 µg/kg, time 15.0 day
[12] = system: Mus musculus; test: Antihypercholesterolemic activity against high cholesterol diet induced C57BL/6J mouse assessed as reduction in plasma low-density lipoprotein cholesterol level at 300 microg/kg, ip administered every 2 days for 15 days; assay type: functional, organism-based; settings: dose 300.0 µg/kg, time 15.0 day
[13] = system: Mus musculus; test: Antihypercholesterolemic activity against high cholesterol diet fed LXRalpha knockout C57BL/6J mouse assessed as reduction in serum alanine aminotransferase level at 300 microg/kg, ip administered every 2 days for 15 days; assay type: functional, organism-based; settings: dose 300.0 µg/kg, time 15.0 day
[14] = system: Mus musculus; test: Antihypercholesterolemic activity against high cholesterol diet induced C57BL/6J mouse assessed as reduction in hepatocyte damage at 300 microg/kg, ip administered every 2 days for 15 days; assay type: functional, organism-based; settings: dose 300.0 µg/kg, time 15.0 day
[15] = system: Mus musculus; test: Antihypercholesterolemic activity against high cholesterol diet induced C57BL/6J mouse assessed as reduction in serum aspartate aminotransferase level at 300 microg/kg, ip administered every 2 days for 15 days; assay type: functional, organism-based; settings: dose 300.0 µg/kg, time 15.0 day
[16] = system: HepG2; test: Improvement of lipid metabolism in palmitic acid and oleic acid induced human HepG2 cell model of hepatic steatosis assessed as reduction in total cellular cholesterol level at 25 uM preincubated with palmitic acid and oleic acid for 48 hrs followed by compound addition and measured after 24 hrs; assay type: functional, cell-based
[17] = system: Mus musculus; test: Antihypercholesterolemic activity against high cholesterol diet fed C57BL/6J mouse assessed as reduction of fine vacuoles in the cytoplasm at 300 microg/kg, ip administered every 2 days for 15 days by Oil red staining based analysis; assay type: functional, organism-based; settings: dose 300.0 µg/kg, time 15.0 day
[18] = system: Mus musculus; test: Antihypercholesterolemic activity against high cholesterol diet fed C57BL/6J mouse assessed as reduction in hepatocyte lysis necrosis at 300 microg/kg, ip administered every 2 days for 15 days by H&E staining based analysis; assay type: functional, organism-based; settings: dose 300.0 µg/kg, time 15.0 day
[19] = molecular target: T1, Oxysterols receptor LXR-alpha (Homo sapiens) (UniProt Q13133); test: Agonist activity at LXRalpha in human HepG2 cells assessed as upregulation of CYP7A1 protein expression level at 25 uM incubated for 24 hrs by Western blot analysis; assay type: cell-based; settings: filed as agonist
T1 sequence (whole entry): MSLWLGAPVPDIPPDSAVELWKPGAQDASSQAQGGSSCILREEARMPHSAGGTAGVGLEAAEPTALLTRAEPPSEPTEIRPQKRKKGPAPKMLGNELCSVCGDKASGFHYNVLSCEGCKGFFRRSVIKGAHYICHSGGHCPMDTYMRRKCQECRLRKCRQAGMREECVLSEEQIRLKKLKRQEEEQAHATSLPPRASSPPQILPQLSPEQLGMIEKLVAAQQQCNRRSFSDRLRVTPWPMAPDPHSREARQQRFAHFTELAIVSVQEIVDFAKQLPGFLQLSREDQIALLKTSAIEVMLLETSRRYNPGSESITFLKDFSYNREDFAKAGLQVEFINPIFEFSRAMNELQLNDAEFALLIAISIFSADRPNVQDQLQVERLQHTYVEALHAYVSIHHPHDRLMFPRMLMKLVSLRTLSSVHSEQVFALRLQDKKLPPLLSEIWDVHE

[20] = system: Mus musculus; test: Antihypercholesterolemic activity against high cholesterol diet fed LXRalpha knockout C57BL/6J mouse assessed as improvement in liver lipid droplet accumulation at 300 microg/kg, ip administered every 2 days for 15 days by H&E staining based analysis; assay type: functional, organism-based; settings: dose 300.0 µg/kg, time 15.0 day
[21] = system: Mus musculus; test: Antihypercholesterolemic activity against high cholesterol diet fed LXRalpha knockout C57BL/6J mouse assessed as reduction in serum aspartate aminotransferase level at 300 microg/kg, ip administered every 2 days for 15 days; assay type: functional, organism-based; settings: dose 300.0 µg/kg, time 15.0 day
[22] = molecular target: T1, Oxysterols receptor LXR-alpha (Homo sapiens); test: Agonist activity at LXRalpha in human HepG2 cells assessed as upregulation of ABCA1 mRNA expression by measuring fold change at 25 uM incubated for 24 hrs by RT-qPCR analysis; assay type: cell-based; settings: filed as agonist
[23] = system: Mus musculus; test: Antihypercholesterolemic activity against high cholesterol diet induced C57BL/6J mouse assessed as reduction in serum alanine aminotransferase level at 300 microg/kg, ip administered every 2 days for 15 days; assay type: functional, organism-based; settings: dose 300.0 µg/kg, time 15.0 day
[24] = molecular target: T2, Oxysterols receptor LXR-alpha (Homo sapiens, UniProt Q13133); test: Binding affinity to full length human LXRalpha assessed as dissociation constant by SPR analysis
T2 sequence (Q13133 whole entry): T1 sequence (whole entry)

[25] = system: Mus musculus; test: Antihypercholesterolemic activity against high cholesterol diet fed LXRalpha knockout C57BL/6J mouse assessed as upregulation in CYP7A1 protein level at 300 microg/kg, ip administered every 2 days for 15 days by Western blot analysis; assay type: functional, organism-based; settings: dose 300.0 µg/kg, time 15.0 day
[26] = molecular target: T1, Oxysterols receptor LXR-alpha (Homo sapiens); test: Agonist activity at LXRalpha in human HepG2 cells assessed as upregulation of ABCA1 protein expression level at 25 uM incubated for 24 hrs by Western blot analysis; assay type: cell-based; settings: filed as agonist
[27] = system: Mus musculus; test: Antihypercholesterolemic activity against high cholesterol diet fed C57BL/6J mouse assessed as reduction of fine vacuoles in the cytoplasm at 300 microg/kg, ip administered every 2 days for 15 days by H&E staining based analysis; assay type: functional, organism-based; settings: dose 300.0 µg/kg, time 15.0 day
[28] = system: Mus musculus; test: Antihypercholesterolemic activity against high cholesterol diet fed C57BL/6J mouse assessed as reduction in FASN protein level at 300 microg/kg, ip administered every 2 days for 15 days by Western blot analysis; assay type: functional, organism-based; settings: dose 300.0 µg/kg, time 15.0 day
[29] = system: Mus musculus; test: Antihypercholesterolemic activity against high cholesterol diet fed C57BL/6J mouse assessed as improvement in hepatocyte degeneration at 300 microg/kg, ip administered every 2 days for 15 days by Oil red staining based analysis; assay type: functional, organism-based; settings: dose 300.0 µg/kg, time 15.0 day
[30] = system: Mus musculus; test: Antihypercholesterolemic activity against high cholesterol diet fed LXRalpha knockout C57BL/6J mouse assessed as improvement in hepatic steatosis at 300 microg/kg, ip administered every 2 days for 15 days by H&E staining based analysis; assay type: functional, organism-based; settings: dose 300.0 µg/kg, time 15.0 day
[31] = system: Mus musculus; test: Antihypercholesterolemic activity against high cholesterol diet fed LXRalpha knockout C57BL/6J mouse assessed as improvement in hepatocellular degeneration at 300 microg/kg, ip administered every 2 days for 15 days by H&E staining based analysis; assay type: functional, organism-based; settings: dose 300.0 µg/kg, time 15.0 day
[32] = system: Mus musculus; test: Antihypercholesterolemic activity against high cholesterol diet fed C57BL/6J mouse assessed as reduction in SREBP1 protein level at 300 microg/kg, ip administered every 2 days for 15 days by Western blot analysis; assay type: functional, organism-based; settings: dose 300.0 µg/kg, time 15.0 day
[33] = system: HepG2; test: Improvement of lipid metabolism in palmitic acid and oleic acid induced human HepG2 cell model of hepatic steatosis assessed as reduction in lipid droplets at 25 uM preincubated with palmitic acid and oleic acid for 48 hrs followed by compound addition and measured after 24 hrs by Oil Red O staining based analysis; assay type: functional
[34] = system: Mus musculus; test: Antihypercholesterolemic activity against high cholesterol diet fed LXRalpha knockout C57BL/6J mouse assessed as reduction in serum low density lipoprotein cholesterol level at 300 microg/kg, ip administered every 2 days for 15 days; assay type: functional, organism-based; settings: dose 300.0 µg/kg, time 15.0 day
[35] = system: Mus musculus; test: Antihypercholesterolemic activity against high cholesterol diet fed C57BL/6J mouse assessed as reduction in hepatocyte lysis necrosis at 300 microg/kg, ip administered every 2 days for 15 days by Oil red staining based analysis; assay type: functional, organism-based; settings: dose 300.0 µg/kg, time 15.0 day
[36] = system: HepG2; test: Improvement of lipid metabolism in palmitic acid and oleic acid induced human HepG2 cell model of hepatic steatosis assessed as reduction in triglyceride level at 25 uM preincubated with palmitic acid and oleic acid for 48 hrs followed by compound addition and measured after 24 hrs; assay type: functional, cell-based
[37] = Cytotoxicity against human HepG2 cells assessed as reduction in cell viability incubated for 24 hrs by CCK8 assay; assay type: toxicity, cell-based
[38] = system: Mus musculus; test: Antihypercholesterolemic activity against high cholesterol diet fed C57BL/6J mouse assessed as improvement in hepatocyte liposis at 300 microg/kg, ip administered every 2 days for 15 days by Oil red staining based analysis; assay type: functional, organism-based; settings: dose 300.0 µg/kg, time 15.0 day
[39] = system: Mus musculus; test: Antihypercholesterolemic activity against high cholesterol diet fed LXRalpha knockout C57BL/6J mouse assessed as improvement in hepatocellular degeneration at 300 microg/kg, ip administered every 2 days for 15 days by Oil red staining based analysis; assay type: functional, organism-based; settings: dose 300.0 µg/kg, time 15.0 day
[40] = system: HepG2; test: Effect on ABCG1 mRNA expression in human HepG2 cells at 25 uM incubated for 24 hrs by RT-qPCR analysis; assay type: functional, cell-based
[41] = system: Mus musculus; test: Antihypercholesterolemic activity against high cholesterol diet fed LXRalpha knockout C57BL/6J mouse assessed as improvement in liver lipid droplet accumulation at 300 microg/kg, ip administered every 2 days for 15 days by Oil red staining based analysis; assay type: functional, organism-based; settings: dose 300.0 µg/kg, time 15.0 day
[42] = system: Mus musculus; test: Antihypercholesterolemic activity against high cholesterol diet fed LXRalpha knockout C57BL/6J mouse assessed as upregulation in ABCA1 protein level at 300 microg/kg, ip administered every 2 days for 15 days by Western blot analysis; assay type: functional, organism-based; settings: dose 300.0 µg/kg, time 15.0 day
[43] = molecular target: T1, Oxysterols receptor LXR-alpha (Homo sapiens); test: Agonist activity at LXRalpha in human HepG2 cells assessed as upregulation of CYP7A1 mRNA expression by measuring fold change at 25 uM incubated for 24 hrs by RT-qPCR analysis; assay type: cell-based; settings: filed as agonist

COc1ccc2c(C[C@@H]3NC(=O)[C@@H]4CCCN4C3=O)c(CC=C(C)C)[nH]c2c1 [TRYPROSTATIN A]
Activity [1]: Active
Activity [2]: inactive
Activity [3]: inactive
Activity [4]: inactive
Activity [5]: Active
Activity [6]: Active
Activity [7]: Active
Activity [8]: inactive
Activity [9]: Active
Activity [10]: Active
Activity [11]: Active
Activity [12]: Active
Activity [13]: inactive
Activity [14]: Active
Activity [15]: Active
Activity [16]: Active
Activity [17]: Active
Activity [18]: Active
Activity [19]: Active
Activity [20]: Active
Activity [21]: inactive
fold change (FC) [22]: 2.05
Activity [23]: Active
Kd [24]: 10.2 nM
Activity [25]: inactive
Activity [26]: Active
Activity [27]: Active
Activity [28]: Active
Activity [29]: Active
Activity [30]: Active
Activity [31]: Active
Activity [32]: Active
Activity [33]: Active
Activity [34]: inactive
Activity [35]: Active
Activity [36]: Active
IC50 at 24 h [37]: > 50000 nM
Activity [38]: Active
Activity [39]: Active
Activity [40]: inactive
Activity [41]: Active
Activity [42]: inactive
fold change (FC) [43]: 5.01
